pIC50: −log10 of the molar value. Calls of active or inactive are those of the source. No cut-off for these calls is given here.
Tests used:
[1] = biological target: T1, 11-beta-hydroxysteroid dehydrogenase 1 (Homo sapiens, UniProt P28845); experiment: Inhibition of human recombinant 11beta-HSD1 expressed in HEK293 cells assessed as reduction of cortisone to cortisol conversion by scintillation counting; assay type: cell-based; details: for pIC50: read-out: IC50; for IC50: hek293
[2] = biological target: T2, 11-beta-hydroxysteroid dehydrogenase type 2 (Homo sapiens) (UniProt P80365); experiment: Inhibition of human recombinant 11beta-HSD2 expressed in HEK293 cells assessed as reduction of […] conversion up to 20 uM by scintillation counting; assay type: cell-based
T2 sequence (whole entry): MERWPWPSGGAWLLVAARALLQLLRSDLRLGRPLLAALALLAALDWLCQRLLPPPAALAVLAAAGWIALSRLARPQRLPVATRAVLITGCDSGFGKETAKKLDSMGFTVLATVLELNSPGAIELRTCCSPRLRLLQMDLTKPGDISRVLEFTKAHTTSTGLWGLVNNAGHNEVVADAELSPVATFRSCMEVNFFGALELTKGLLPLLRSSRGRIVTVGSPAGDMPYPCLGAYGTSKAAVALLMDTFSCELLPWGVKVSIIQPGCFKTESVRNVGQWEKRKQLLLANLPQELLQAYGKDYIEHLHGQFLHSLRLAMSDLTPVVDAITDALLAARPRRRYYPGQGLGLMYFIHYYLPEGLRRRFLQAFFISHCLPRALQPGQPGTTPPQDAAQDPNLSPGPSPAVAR

[3] = biological target: T1, 11-beta-hydroxysteroid dehydrogenase 1; experiment: Inhibition of human recombinant 11beta-HSD1 expressed in HEK293 cells assessed as reduction of cortisone to cortisol conversion at 20 uM by scintillation counting; assay type: cell-based
Target sequence in this assay (P28845 whole entry, looked up): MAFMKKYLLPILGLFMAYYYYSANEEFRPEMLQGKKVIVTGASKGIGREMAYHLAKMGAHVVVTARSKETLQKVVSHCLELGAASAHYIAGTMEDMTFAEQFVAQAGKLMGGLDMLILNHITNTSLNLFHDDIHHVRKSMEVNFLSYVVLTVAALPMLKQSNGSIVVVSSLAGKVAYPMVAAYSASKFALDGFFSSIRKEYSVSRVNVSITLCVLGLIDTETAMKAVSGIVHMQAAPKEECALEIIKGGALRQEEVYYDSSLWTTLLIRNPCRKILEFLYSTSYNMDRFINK

[4] = biological target: T2, 11-beta-hydroxysteroid dehydrogenase type 2 (Homo sapiens); experiment: Inhibition of human recombinant 11beta-HSD2 expressed in HEK293 cells assessed as reduction of […] conversion at 20 uM by scintillation counting; assay type: cell-based
[5] = biological target: T1, 11-beta-hydroxysteroid dehydrogenase 1; experiment: Inhibition of human recombinant 11beta-HSD1 expressed in HEK293 cells assessed as partial reduction of cortisone to cortisol conversion at 3 uM by scintillation counting; assay type: cell-based
Target sequence in this assay (P28845 whole entry, looked up): as above

[6] = biological target: T1, 11-beta-hydroxysteroid dehydrogenase 1; details: HEK293, 4 uM
Target sequence in this assay (P28845 whole entry, looked up): as above
Description: Inhibition of human recombinant 11beta-HSD1 expressed in HEK293 cells assessed as partial reduction of cortisone to cortisol conversion at 4 uM by scintillation counting

[7] = biological target: T1, 11-beta-hydroxysteroid dehydrogenase 1; experiment: Inhibition of human recombinant 11beta-HSD1 expressed in HEK293 cells assessed as partial reduction of cortisone to cortisol conversion at 1.5 uM by scintillation counting; assay type: cell-based
Target sequence in this assay (P28845 whole entry, looked up): as above

Structure (SMILES)	Activity [4]	IC50 [1]	other results
C[C@H]1[C@H](C)CC[C@]2(C(=O)O)CC[C@]3(C)C(=CC[C@@H]4[C@@]5(C)C[C@@H](O)[C@H](O)C(C)(C)[C@@H]5CC[C@]43C)[C@H]12 [COROSOLIC ACID]			inhibition [1]: Dose-dependent effect; pIC50 [1]: 6.09; inhibition [2]: inactive
CC(=O)O[C@H]1CC[C@]2(C)[C@H]3C(=O)C=C4[C@@H]5[C@@H](C)[C@H](C)CC[C@]5(C(=O)O)CC[C@@]4(C)[C@]3(C)CC[C@H]2C1(C)C [11-OXOURSOLIC ACID ACETATE]			pIC50 [1]: 5.87
C[C@H]1[C@H](C)CC[C@]2(C)CC[C@]3(C)C(=CC(=O)[C@@H]4[C@@]5(C)CC[C@@H](O)[C@](C)(C(=O)O)[C@@H]5CC[C@]43C)[C@H]12			inhibition [3]: 52%; inhibition [4]: 68%
CC[C@H](CC[C@@H](C)[C@H]1CC[C@H]2[C@@H]3CC=C4C[C@@H](O)CC[C@]4(C)[C@H]3CC[C@]12C)C(C)C	inactive		
C[C@H]1[C@H](C)CC[C@]2(C(=O)O)CC[C@]3(C)C(=CC[C@@H]4[C@@]5(C)C[C@@H](O)C(=O)C(C)(C)[C@@H]5CC[C@]43C)[C@H]12	inactive		inhibition [5]: Active
COC(=O)[C@]12CC[C@@H](C)[C@@](C)(O)[C@H]1C1=CC[C@@H]3[C@@]4(C)C[C@@H](O)[C@H](O)C(C)(C)[C@@H]4CC[C@@]3(C)[C@]1(C)CC2 [TORMENTIC ACID METHYL ESTER]	inactive		pIC50 [1]: 5.03; inhibition [6]: Active
C[C@H](CC(=O)C[C@@H](C)[C@H]1C[C@H](O)[C@@]2(C)C3=C(C(=O)C[C@]12C)[C@@]1(C)CCC(=O)C(C)(C)[C@@H]1C[C@@H]3O)C(=O)O			inhibition [3]: 46%; inhibition [4]: 76%
COC(=O)[C@]12CC[C@@H](C)[C@H](C)[C@H]1C1=CC[C@@H]3[C@@]4(C)C[C@@H](O)[C@@H](O)C(C)(C)[C@@H]4CC[C@@]3(C)[C@]1(C)CC2	inactive		pIC50 [1]: 5.28
C[C@H]1[C@H](C)CC[C@]2(C(=O)O)CC[C@]3(C)C(=CC[C@@H]4[C@@]5(C)CC[C@H](O)C(C)(C)[C@@H]5CC[C@]43C)[C@H]12	inactive		inhibition [7]: Active
C[C@H]1[C@H](C)CC[C@]2(CO)CC[C@]3(C)C(=CC[C@@H]4[C@@]5(C)CC[C@H](O)C(C)(C)[C@@H]5CC[C@]43C)[C@H]12 [UVAOL]	inactive	Not Active	
C[C@@H]1CC[C@]2(C(=O)O)CC[C@]3(C)C(=CC[C@@H]4[C@@]5(C)C[C@@H](O)[C@H](O)C(C)(C)[C@@H]5CC[C@]43C)[C@@H]2[C@]1(C)O [TOMENTIC ACID]	inactive	Not Active	
C[C@@H]1CC[C@]2(C(=O)O)CC[C@]3(C)C(=CC[C@@H]4[C@@]5(C)C[C@@H](O)[C@H](OC(=O)/C=C/c6ccc(O)cc6)C(C)(C)[C@@H]5CC[C@]43C)[C@@H]2[C@]1(C)O	inactive	Not Active	
C[C@H]1[C@H](C)CC[C@]2(C(=O)O)CC[C@]3(C)C(=CC(=O)[C@@H]4[C@@]5(C)CC[C@H](O)C(C)(C)[C@@H]5CC[C@]43C)[C@H]12			pIC50 [1]: 5.69
COC(=O)[C@]12CC[C@@H](C)[C@H](C)[C@H]1C1=CC[C@@H]3[C@@]4(C)C[C@@H](O)[C@H](O)C(C)(C)[C@@H]4CC[C@@]3(C)[C@]1(C)CC2 [COROSOLIC ACID METHYL ESTER]	inactive	Not Active	
CC(=O)O[C@@H]1CC[C@@]2(C)[C@@H](CC[C@]3(C)[C@@H]2C(=O)C=C2[C@@H]4[C@@H](C)[C@H](C)CC[C@]4(C)CC[C@]23C)[C@@]1(C)C(=O)O			inhibition [3]: 63%; inhibition [4]: 52%
COC(=O)[C@]12CCC(C)(C)C[C@H]1C1=CC[C@@H]3[C@@]4(C)C[C@@H](O)[C@H](O)C(C)(C)[C@@H]4CC[C@@]3(C)[C@]1(C)CC2 [MASLINIC ACID METHYL ESTER]	inactive	Not Active	
COC(=O)[C@]12CC[C@@H](C)[C@H](C)[C@H]1C1=CC[C@@H]3[C@@]4(C)CC[C@H](O)C(C)(C)[C@@H]4CC[C@@]3(C)[C@]1(C)CC2	inactive		
C[C@@H]1CC[C@]2(C(=O)O)CC[C@]3(C)C(=CC[C@@H]4[C@@]5(C)C[C@@H](O)[C@H](OC(=O)/C=C\c6ccc(O)cc6)C(C)(C)[C@@H]5CC[C@]43C)[C@@H]2[C@]1(C)O	inactive	Not Active	

— ChEMBL document CHEMBL1156911 (Bioorg Med Chem, 2010)
